Results from patent US6342509B1, “Piperidine quaternary salts- CCR- 3 receptor antagonists” (Syntex (U.S.A.) LLC, priority 1998, dated 2002).

Tests used:
CCR-3 receptor = molecular target: T1, CCR-3 receptor (Homo sapiens, UniProt P51677); experiment: CCR-3 Receptor Binding Assay in vitro (inhibition of 125I eotaxin binding to CCR-3 L1.2 transfectant cells); conditions: CCR-3 L1.2 transfected cells, 1 h at room temperature, read-out: IC50 (concentration of test compound required to reduce 125I-eotaxin binding to the CCR-3 L1.2 transfected cells by 50%)
T1 construct: host or cells: L1.2 (murine pre-B lymphoma line) CCR-3 transfectant cells
T1 sequence (P51677 1-355): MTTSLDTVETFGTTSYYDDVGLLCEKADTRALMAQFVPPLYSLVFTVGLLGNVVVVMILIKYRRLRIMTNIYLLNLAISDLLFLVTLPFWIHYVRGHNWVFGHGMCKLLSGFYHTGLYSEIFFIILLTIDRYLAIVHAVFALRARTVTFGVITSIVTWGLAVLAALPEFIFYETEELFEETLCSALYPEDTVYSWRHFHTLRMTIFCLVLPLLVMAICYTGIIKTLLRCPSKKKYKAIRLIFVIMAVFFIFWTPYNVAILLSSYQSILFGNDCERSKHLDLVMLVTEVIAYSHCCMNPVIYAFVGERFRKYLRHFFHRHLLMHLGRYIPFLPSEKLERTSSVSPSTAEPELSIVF
Protocol: The CCR-3 antagonistic activity of the compounds of the invention was determined by their ability to inhibit the binding of ^125I eotaxin to CCR-3 L1.2 transfectant cells obtained from leukoSite (Cambridge, Mass.).
The assay was performed in Costar 96-well polypropylene round bottom plates. Test compounds were dissolved in DMSO and then diluted with binding buffer (50 mM HEPES, 1 mM CaCl2, 5 mM MgCl2, 0.5% bovine serum albumin, 0.02% sodium azide, pH 7.24) such that the final DMSO concentration was 2%. 25 μl of the test solution or only buffer with DMSO (control samples) was added to each well, followed by the addition of 25 μl of ^125I-eotaxin ([…]) (NEX314, New England Nuclear, Boston, Mass.) and […] of the CCR-3 L1.2 transfected cells in 25 μl binding buffer. The final reaction volume was 75 μl.
After incubating the reaction mixture for 1 h at room temperature, the reaction was terminated by filtering the reaction mixture through polyethylenimine treated Packard Unifilter GF/C filter plate (Packard, Chicago, Ill.). The filters were washed four times with ice cold wash buffer containing 10 mm HEPES and 0.5M sodium chloride (pH 7.2) and dried at 65° C. for approximately 10 min. 25 μl/well of Microscint-20™ scintillation fluid (Packard) was added and the radioactivity retained on the filters was determined by using the Packard TopCount™.
The IC50 value (concentration of test compound required to reduce ^125I-eotaxin binding to the CCR-3 L 1.2 transfected cells by 50%) for representative compounds of the invention was: […]

Row | Structure (SMILES) | melting point [°C] | IC50 (CCR-3 receptor) [nM]
1 | COc1cc(NC(=O)NC(C[N+]2(C)CCC(Cc3ccc(Cl)c(Cl)c3)CC2)C(C)C)cc(OC)c1OC.[Cl-] (centres unmarked) | 123.7 to 138 | –
2 | CC[N+]1(C[C@H](NC(=O)Nc2cc(OC)c(OC)c(OC)c2)C(C)C)CCC(Cc2ccc(Cl)c(Cl)c2)CC1 (some centres unmarked) [Cpd 1, 4-(3,4-Dichlorobenzyl)-1-ethyl-1-{3-methyl-2-[3-(3,4,5-trimethoxyphenyl)-ureido]butyl]piperidinium iodide] | – | 210
3 | CCc1ccccc1NC(=O)N[C@@H](C[N+]1(CC)CCC(Cc2ccc(Cl)c(Cl)c2)CC1)C(C)(C)C (some centres unmarked) [Cpd 12] | – | 198
4 | COc1cc(NC(=O)NC(C[N+]2(C)CCC(Cc3ccc(Cl)c(Cl)c3)CC2)C(C)C)cc(OC)c1OC (centres unmarked) [Cpd 14, 4-(3,4-dichlorobenzyl)-1-methyl-1-{3-methyl-2-[3-(3,4,5-trimethoxyphenyl)ureido]butyl}piperidinium iodide] | – | 2320
5 | COc1cc(NC(=O)NCC[N+]2(C)CCC(Cc3ccc(Cl)c(Cl)c3)CC2)cc(OC)c1OC.[I-] (centres unmarked) [Cpd 19, 4-(3,4-dichlorobenzyl)-1-methyl-1-{2-[(3,4,5-trimethoxyphenyl)ureido]ethyl}piperidinium iodide] | 102 to 108 | –
